# Laboratory results: patent publication US12215106B2, “Pharmaceutical compounds and therapeutic methods” (RUTGERS, THE STATE UNIVERSITY OF NEW JERSEY, priority 2018, dated 2025)
# Where a name gives a salt, the structure may show the parent alone. Read-outs that look alike come from different tables or passages of the source.
# Assay: Plasma pharmacokinetics and brain distribution after single IV, IP and oral administration
# Type: in vivo
# Settings: for Kp at 0.08 h / Kp at 0.35 h / Kp at 1 h / Kp at 3 h / Kp at 6 h: read-out: Brain-to-plasma ratio
# Method: The objective of this study was to investigate the plasma pharmacokinetics and brain distribution of Compound (14 in male C57BL/6 mice following a single intravenous, intraperitoneal and oral administration. A group of sixty-three male mice were divided into three groups (Group 1: 2 mg/kg/IV; Group 2: 10 mg/kg/IP and Group 3: 10 mg/kg/PO) with each group comprising of twenty-one mice.
# Animals in Group 1 were administered intravenously with Compound 15 solution formulation in 5% NMP, 5% Solutol HS-15, 30% PEG-400 and 60% Captisol (20% w/v) at 2 mg/kg dose. […] Considering mortality intravenous dose was reduced to 2 mg/kg.
# Animals in Group 2 and 3 were administered with Compound 15 solution formulation in 5% NMP, 5% Solutol HS-15, 30% PEG-400 and 60% Captisol (20% w/v) at a dose of 10 mg/kg by intraperitoneal and oral route respectively.
# (§1) Blood samples (approximately 60 μL) were collected under light isoflurane anesthesia from retro orbital plexus from a set of three mice at 0.08, 0.35, 1, 3, 6, 12 and 24 hr. Plasma samples were separated by centrifugation of whole blood and stored below −70±10° C. until bioanalysis. Immediately after collection of blood, brain samples were collected from set of three mice at each time point. Brain samples were homogenized using ice-cold phosphate buffer saline (pH-7.4) in a ratio of 2 (buffer):1(brain); and homogenates were stored below −70±10° C. until analysis. Total homogenate volume was three times the brain weight. All samples were processed for analysis by protein precipitation using acetonitrile and analyzed with fit-for-purpose LC/MS/MS method (LLOQ2.00 ng/mL for plasma and 3.00 ng/g for brain). Pharmacokinetic parameters were calculated using the non-compartmental analysis tool of Phoenix WinNonlin® (Version 7.0). Pharmacokinetic parameters of Compound 15 are summarized below.
# The objective of this study was to investigate the plasma pharmacokinetics and brain distribution of Compound 16 in male C57BL/6 mice following a single intravenous, intraperitoneal and oral administration. A group of sixty-three male mice were divided into three groups (Group 1: 10 mg/kg/IV; Group 2: 10 mg/kg/IP and Group 3: 10 mg/kg/PO) with each group comprising of twenty-one mice.
# Animals in Group 1 were administered intravenously with Compound 16 solution formulation in 5% NMP, 5% Solutol HS-15 and 90% normal saline at 10 mg/kg dose.
# Animals in Group 2 and 3 were administered with Compound 16 solution formulation in 5% NMP, 5% Solutol HS-15 and 90% normal saline at a dose of 10 mg/kg by intraperitoneal and oral route respectively.
# as §1, with “(LLOQ—1.00” for “(LLOQ2.00”, “16” for “15”
# The objective of this study was to investigate the plasma pharmacokinetics and brain distribution of Compound 17 in male C57BL/6 mice following a single intravenous, intraperitoneal and oral administration. A group of sixty-three male mice were divided into three groups (Group 1: 2 mg/kg/IV; Group 2: 10 mg/kg/IP and Group 3: 10 mg/kg/PO) with each group comprising of twenty-one mice. […]
# [1] = male, C57BL/6, mouse, brain, ip, 10 mg/kg, IP 10 mg/kg
# [2] = male, C57BL/6, mouse, brain, po, 10 mg/kg, PO 10 mg/kg
# [3] = male, C57BL/6, mouse, in vivo, ip, 10 mg/kg
# [4] = male, C57BL/6, mouse, in vivo, ip, 10 mg/kg, 12 h
# [5] = male, C57BL/6, mouse, in vivo, ip, 10 mg/kg, 24 h
# [6] = male, C57BL/6, mouse, in vivo, ip, 10 mg/kg, Brain concentration, individual animal
# [7] = male, C57BL/6, mouse, in vivo, ip, 10 mg/kg, Mean brain conc.
# [8] = male, C57BL/6, mouse, in vivo, ip, 10 mg/kg, Mean plasma conc.
# [9] = male, C57BL/6, mouse, in vivo, ip, 10 mg/kg, Plasma concentration, individual animal
# [10] = male, C57BL/6, mouse, in vivo, iv, 2 mg/kg
# [11] = male, C57BL/6, mouse, in vivo, iv, 2 mg/kg, 3 h
# [12] = male, C57BL/6, mouse, in vivo, iv, 2 mg/kg, 6 h
# [13] = male, C57BL/6, mouse, in vivo, iv, 2 mg/kg, 12 h
# [14] = male, C57BL/6, mouse, in vivo, iv, 2 mg/kg, 24 h
# [15] = male, C57BL/6, mouse, in vivo, iv, 2 mg/kg, Brain concentration, individual animal
# [16] = male, C57BL/6, mouse, in vivo, iv, 2 mg/kg, Mean brain conc.
smiles,measurement,setting,value
"[2H]C1([2H])Oc2ccc(Nc3nc(-c4c(C)nc5ccccn45)cs3)cc2O1 [Compound 17, N-(benzo[d][1,3]dioxol-5-yl-2,2-d2)-4-(2-methylimidazo[1,2-c]pyridin-3-yl)thiazol-2-amine hydrochloride]","Oral bioavailability, % F","PO 10 mg/kg, AUClast considered, hydrochloride, 10 mg/kg",~100%
same,AUClast,"brain, IP 10 mg/kg",360.87 ng·h/g
same,AUClast,"brain, IV 2 mg/kg",97.08 ng·h/g
same,AUCinf,"brain, PO 10 mg/kg",204.06 ng·h/g
same,AUClast,"brain, PO 10 mg/kg",171.84 ng·h/g
same,Kp at 0.08 h,[1],0.61
same,Kp at 0.35 h,[1],0.52
same,Kp at 1 h,[1],0.39
same,Kp at 3 h,[1],1.1
same,Kp at 6 h,[1],0.59
same,Kp,"male, C57BL/6, mouse, brain, ip, 10 mg/kg, IP 10 mg/kg, read-out: brain-to-plasma ratio, range over time",0.39 to 1.1
same,Kp,"male, C57BL/6, mouse, brain, iv, 2 mg/kg, IV 2 mg/kg, read-out: brain-to-plasma ratio, range over time",0.18 to 4.03
same,Kp at 0.08 h,[2],0.33
same,Kp at 0.35 h,[2],0.32
same,Kp at 1 h,[2],0.48
same,Kp at 3 h,[2],0.32
same,Kp at 6 h,[2],0.23
same,Kp,"male, C57BL/6, mouse, brain, po, 10 mg/kg, PO 10 mg/kg, read-out: brain-to-plasma ratio, range over time",0.23 to 0.48
same,Kp,"male, C57BL/6, mouse, brain, po, 10 mg/kg, summary data, read-out: Brain to plasma ratio following a single oral dose",0.48
same,Brain concentrations quantifiable up to,[3],up to 6 hr
same,Plasma concentrations quantifiable up to,[3],up to 6 hr
same,"Brain concentration, individual animal",[4],0.00 ng/g
same,"Plasma concentration, individual animal",[4],0.00 ng/mL
same,"Brain concentration, individual animal",[5],0.00 ng/g
same,"Plasma concentration, individual animal",[5],0.00 ng/mL
same,concentration at 0.08 h,[6],285 ng/g
same,concentration at 0.35 h,[6],291 ng/g
same,concentration at 1 h,[6],65.9 ng/g
same,concentration at 12 h,[6],0 ng/g
same,concentration at 24 h,[6],0 ng/g
same,concentration at 0.35 h,[7],236 ng/g
same,concentration at 1 h,[7],90.3 ng/g
same,concentration at 3 h,[7],82 ng/g
same,concentration at 6 h,[7],26 ng/g
same,concentration at 12 h,[7],0 ng/g
same,concentration at 24 h,[7],0 ng/g
same,concentration at 0.35 h,[8],458 ng/mL
same,concentration at 1 h,[8],232 ng/mL
same,concentration at 3 h,[8],74.9 ng/mL
same,concentration at 6 h,[8],43.7 ng/mL
same,concentration at 12 h,[8],0 ng/mL
same,concentration at 24 h,[8],0 ng/mL
same,concentration at 0.08 h,[9],530 ng/mL
same,concentration at 0.35 h,[9],478 ng/mL
same,concentration at 1 h,[9],223 ng/mL
same,concentration at 12 h,[9],0 ng/mL
same,concentration at 24 h,[9],0 ng/mL
same,Brain concentrations quantifiable up to,[10],up to 1 hr
same,"Vss, fold more than normal volume of total body water (0.7 L/kg)",[10],6.3 fold
same,"Brain concentration, individual animal",[11],0.00 ng/g
same,"Plasma concentration, individual animal",[11],0.00 ng/mL
same,"Brain concentration, individual animal",[12],0.00 ng/g
same,"Plasma concentration, individual animal",[12],0.00 ng/mL
same,"Brain concentration, individual animal",[13],0.00 ng/g
same,"Plasma concentration, individual animal",[13],0.00 ng/mL
same,"Brain concentration, individual animal",[14],0.00 ng/g
same,"Plasma concentration, individual animal",[14],0.00 ng/mL
same,concentration at 0.08 h,[15],44.7 ng/g
same,concentration at 1 h,[15],17.1 ng/g
same,concentration at 3 h,[15],0 ng/g
same,concentration at 6 h,[15],0 ng/g
same,concentration at 12 h,[15],0 ng/g
same,concentration at 24 h,[15],0 ng/g
same,concentration at 0.08 h,[16],44.9 ng/g
same,concentration at 0.35 h,[16],180 ng/g
same,concentration at 1 h,[16],13.8 ng/g
same,concentration at 3 h,[16],0 ng/g
